Data on 13 compounds can be found in patent publication US12252493B2, “Imidazo[1,2-c]pyrimidine derivatives as PRC2 inhibitors for treating cancer” (Mirati Therapeutics, Inc., priority 2019, dated 2025).

A value given as a limit tells only on which side of the number the result lay.

Test [1] relates to PRC2-mediated histone H3 methylation (H3 Lys27 trimethylation) in Pfeiffer cells expressing mutant EZH2 (A677G). Briefly: Tri-Methyl Histone H3 (Lys 27) sandwich ELISA in Pfeiffer cells. The format is cell-based, human. As to conditions: Homo sapiens; Pfeiffer cells, 96 hours incubation, ELISA; read-out: IC50, Inhibition of EZH2-mediated Histone H3 Trimethylation. From the text:
The Pfeiffer cell line was established from a […] from a patient having metastatic diffuse large B-cell lymphoma (DLBCL). This cell line expresses a mutant form of the EZH2 enzyme (A677G) that results in enhanced EZH2 activity leading to increased methylation of histone H3 Lys27. Increased trimethylation of histone H3 Lys27 is believed to be implicated in tumorgenesis and poor clinical prognosis in lymphomas (McCabe et al., (2012) Nature 492:108-112).
Inhibition of PRC2-mediated histone H3 methylation by compounds of Formula (I) was measured by ELISA using a Tri-Methyl Histone H3 (Lys 27) Sandwich ELISA Kit (Cell Signaling Tech #7866C) in accordance with the manufacturer's instructions. Briefly, Pfeiffer cells were cultured in RPMI medium supplemented with 10% fetal bovine serum and 1% penicillin and 1% streptomycin in 96 well culture plates at 37° C. to a density of 8000 cells/90 μl/well and the cells were harvested. A series of 3-fold serial dilutions of each test compound of Formula (I) were prepared in RPMI medium and added to the cells at final concentrations ranging from 1 μM to 0.15 nM. The plates were incubated at 37° C. for 96 hours.
After incubation, the cells were pelleted by centrifugation in a pre-cooled 4° C. rotor at 1,100 rpm for 10 min and the supernatant was removed by aspiration. The cell pellet was resuspended in 55 μl of Lysis Buffer (0.4M HCl) and incubated on ice with periodic shaking for 30 minutes. The lysed cells were subjected to centrifugation at 4,200 rpm for 10 min at 4° C. and the supernatant containing acid-soluble proteins was collected and the remainder discarded. The acid-soluble proteins were brought to a neutral pH by the addition of 20 μl of Neutralization Buffer (1 M Sodium phosphate, dibasic (pH 12.5), 2.5 mM DTT and 1 mM PMSF) and the neutralized lysates were analyzed by ELISA.
A 65 μl aliquot of each cell lysate was added to a well of a microwell strip, the microwells were sealed using tape and incubated either at 37° C. for two hours or at 4° C. overnight. After incubation, the tape was removed at the microwells were washed four times using 200 μl of 1× Wash Buffer. To each washed microwell, a 100 μl aliquot of an anti-trimethyl histone H3 Lys27 Detection Antibody solution was added and the microwells were incubated at 37° C. for one hour. The Detection Antibody solution was removed by aspiration and the wells were washed four times each using 200 μl of 1× Wash Buffer.
A 100 μl aliquot of an HRP-linked secondary antibody was added to each well, the wells were sealed with tape and incubated at 37° C. for 30 min. The HRP-linked secondary antibody solution was removed by aspiration and the wells were washed four times using 200 μl of 1× Wash Buffer. A 100 μl aliquot of a TMB substrate was added to each well, the wells were sealed with tape and incubated at 37° C. for 10 min or 25° C. for 30 min. The reaction was stopped by the addition of 100 μl aliquot of a STOP solution and the plate was shaken briefly. The degree of histone H3 trimethylation was determined using a spectrophotometric readout by measuring the absorbance at 450 nm and then calculating the amount of trimethylated histone H3. Key: A=≤250 nM; B=>250 nM-≤500 nM; and C=>500 nM-≤5 μM.
(ELISA stands for enzyme-linked immunosorbent assay.)

Test [2] deals with Karpas 422 cells expressing mutant EZH2 (Y641N). Briefly: Karpas 422 cell viability (Cell Titre Glo) assay. To be noted: Homo sapiens, CTG viability, time point (Day 4, Day 7 or Day 11) not given, read-out: IC50, Inhibiting Proliferation of Cells Expressing an Activating Mutant Form of EZH2. The format is cell-based, human. As for the experimental part: Karpas 422 cell line is a human B cell non-Hodgkin's lymphoma cell line established from a patient having DLBCL. This EZH2 heterozygotic cell line expresses a mutant form of EZH2 enzyme (Y641N) that increases histone H3 methylation and this mutation has been implicated in the tumorgenesis of lymphomas, such as DLBCL.
Karpas 422 cells (PHE cat no., 06101702) were cultured in RPMI medium supplemented with 20% fetal bovine serum and 1% penicillin/1% streptomycin and plated at a density of 1000 cells/90 μl/well in 96 well white assay plates. A dose response curve for compounds of the present invention was determined by adding a 10 μl aliquot of stock solutions of varying concentrations of compounds to the same medium in each well, over a concentration range of 10 μM using 3-fold dilutions to a final concentration of 1.5 nM. The plates were incubated at 37° C. for predetermined time periods, Day 4, Day 7, or Day 11, and the viability of the cells was measured using a CTG assay kit (Cell Titre Glo; Promega cat. no G7573) on Day 4 and Day 7 in accordance with the manufacturer's instructions.
For the viability assay for the Day 11 plates, the plates were subjected to centrifugation at 1100 rpm for five minutes on Day 7 and the supernatant was removed by aspiration. The cells were resuspended in 90 μl aliquot of the appropriate growth medium lacking the compound followed by addition of 10 μl of a 10× stock of the same compound at the same concentration. The viability of the Day 11 cells was measured using the CTG assay kit described above in accordance with the manufacturer's instructions. The IC50 values for each compound at each predetermined time point were calculated using Graph pad PRISM software and the results are shown in Table 7. Key: A=≤250 nM; B=>250 nM-≤500 nM; C=>500 nM-≤5 μM and N.D.=not determined.

Test [3] addresses purified human, His-tagged PRC2 complex (Homo sapiens (Human), UniProt O75530). The experiment in a line: Hot Spot HMT assay of PRC2 enzymatic activity (tritiated methyl transfer from SAM to core histone). The format is biochemical. As to conditions: 10 nM purified PRC2 complex, 0.05 mg/ml core histone H3, 1 uM 3H-SAM, 1 hr at 30° C.; read-out: IC50, Inhibition of PRC2-mediated Enzymatic Activity. As for the experimental part: Ten-point dose-response curves for compounds of the present invention were determined using a Hot Spot HMT assay (Reaction Biology Corp; see Horiuchi et al., Assay Drug Dev Technol. (2013) 4: 227-236 doi: 10.1089/adt.2012.480). The assay uses purified human, His-tagged PRC2 complex, including N-terminal His-tagged EZH2 enzyme, N-terminal Flag-tagged embryonic ectoderm development protein (EED), N-terminal His-tagged suppressor of zeste 12 (SUZ12), N-terminal His-tagged AEBP2, and N-terminal His-tagged RbAp48. In this assay, the transfer of the tritiated methyl group from radiolabeled S-adenosyl methionine (SAM) to purified core histone protein by EZH2 is quantitated after filtration to determine the activity of the core PRC2 complex in the presence and absence of compound.
Briefly, compounds of the present invention were solubilized in DMSO and a series of 10, three-fold serial dilutions were made for each compound in 15% DMSO. The initial starting concentration for the serial dilutions of each compound was 1.0 μM. Control samples lacking compound, EZH2 enzyme or various reaction components also were prepared and processed in parallel with compound test samples. SAH (S-(5-adenosyl)-L-homocysteine) was used as a positive control for assay validation.
An aliquot of each serial dilution of test compound was added to deep 384 well plate using Acoustic Technology instrument (Echo 550, LabCyte) containing reaction buffer (50 mM Tris-HCl (pH 8.)), 0.01% Brij35, 1 mM EDTA, 1 mM DTT, 1 mM PMSF and 1% DMSO), 10 nM purified PRC2 complex and 0.05 mg/ml core histone H3 in a 5 μl volume. The reaction was mixed gently and then pre-incubated for 20 min at 30° C. The enzymatic reaction was initiated by adding 1 uM S-Adenosyl-L-[methyl ^3H]methionine and incubated for 1 hr at 30° C. After 1 hr, the reaction product was detected using a filter binding method and the amount of tritiated H3 core histone was quantitated using a scintillation counter. The IC50 value for each compound was determined from each 10-point dose-response curve using GraphPad Prism software and the results for exemplary compounds of Formula (I) are shown in Table 5. Key: A=≤250 nM; B=>250 nM—≤500 nM; and C=>500 nM—≤2 μM.

Sequence of purified human, His-tagged PRC2 complex (Q15910 whole entry): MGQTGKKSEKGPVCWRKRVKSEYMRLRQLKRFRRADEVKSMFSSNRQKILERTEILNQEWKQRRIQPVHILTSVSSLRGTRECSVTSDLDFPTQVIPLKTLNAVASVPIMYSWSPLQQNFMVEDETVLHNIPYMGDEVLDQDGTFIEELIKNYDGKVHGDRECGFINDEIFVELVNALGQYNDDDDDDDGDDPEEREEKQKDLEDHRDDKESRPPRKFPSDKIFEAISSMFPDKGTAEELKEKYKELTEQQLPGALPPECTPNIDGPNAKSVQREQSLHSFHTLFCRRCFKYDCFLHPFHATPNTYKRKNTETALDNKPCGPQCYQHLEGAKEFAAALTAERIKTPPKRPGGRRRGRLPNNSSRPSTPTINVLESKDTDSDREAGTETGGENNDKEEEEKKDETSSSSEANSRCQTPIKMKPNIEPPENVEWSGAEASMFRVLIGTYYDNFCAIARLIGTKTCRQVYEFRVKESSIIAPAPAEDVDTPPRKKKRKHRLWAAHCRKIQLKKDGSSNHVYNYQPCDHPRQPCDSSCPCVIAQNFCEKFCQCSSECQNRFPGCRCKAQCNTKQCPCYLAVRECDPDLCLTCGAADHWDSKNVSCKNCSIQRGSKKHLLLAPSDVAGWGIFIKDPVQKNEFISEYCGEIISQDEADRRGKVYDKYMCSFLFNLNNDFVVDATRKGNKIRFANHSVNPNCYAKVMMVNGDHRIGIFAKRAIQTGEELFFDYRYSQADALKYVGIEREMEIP
Sequence of purified human, His-tagged PRC2 complex (O75530 whole entry): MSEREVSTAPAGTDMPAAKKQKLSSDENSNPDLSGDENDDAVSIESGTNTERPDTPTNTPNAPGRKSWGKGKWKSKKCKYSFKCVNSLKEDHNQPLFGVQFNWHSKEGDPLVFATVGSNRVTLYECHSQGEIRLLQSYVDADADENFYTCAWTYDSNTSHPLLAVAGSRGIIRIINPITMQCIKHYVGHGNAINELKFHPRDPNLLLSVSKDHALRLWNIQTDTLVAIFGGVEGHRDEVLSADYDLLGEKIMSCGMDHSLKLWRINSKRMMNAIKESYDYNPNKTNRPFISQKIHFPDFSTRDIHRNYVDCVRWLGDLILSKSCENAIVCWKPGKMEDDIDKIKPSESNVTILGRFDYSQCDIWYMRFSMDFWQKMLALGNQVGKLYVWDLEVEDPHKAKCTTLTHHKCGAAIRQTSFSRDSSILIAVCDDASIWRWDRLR
Sequence of purified human, His-tagged PRC2 complex (Q15022 whole entry partner): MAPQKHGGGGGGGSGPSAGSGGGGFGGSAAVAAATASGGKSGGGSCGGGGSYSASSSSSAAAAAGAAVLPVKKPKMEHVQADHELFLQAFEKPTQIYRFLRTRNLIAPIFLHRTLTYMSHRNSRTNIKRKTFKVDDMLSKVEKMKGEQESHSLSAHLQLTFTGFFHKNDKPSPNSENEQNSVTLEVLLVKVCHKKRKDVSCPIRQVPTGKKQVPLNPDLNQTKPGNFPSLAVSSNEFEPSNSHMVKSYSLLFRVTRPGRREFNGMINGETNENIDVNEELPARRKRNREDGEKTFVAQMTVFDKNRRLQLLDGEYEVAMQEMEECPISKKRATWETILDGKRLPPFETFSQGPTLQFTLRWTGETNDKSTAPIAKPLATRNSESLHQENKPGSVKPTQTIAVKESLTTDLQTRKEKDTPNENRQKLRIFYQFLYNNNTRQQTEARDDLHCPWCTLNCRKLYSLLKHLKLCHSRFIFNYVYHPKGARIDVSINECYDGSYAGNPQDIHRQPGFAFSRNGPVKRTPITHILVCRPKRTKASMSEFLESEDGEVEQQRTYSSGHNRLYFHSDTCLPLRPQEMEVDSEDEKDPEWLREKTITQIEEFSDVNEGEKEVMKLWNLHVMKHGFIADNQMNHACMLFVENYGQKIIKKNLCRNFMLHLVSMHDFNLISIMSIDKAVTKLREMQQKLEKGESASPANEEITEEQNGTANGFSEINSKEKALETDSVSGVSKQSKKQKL
Sequence of purified human, His-tagged PRC2 complex (Q6ZN18 whole entry partner): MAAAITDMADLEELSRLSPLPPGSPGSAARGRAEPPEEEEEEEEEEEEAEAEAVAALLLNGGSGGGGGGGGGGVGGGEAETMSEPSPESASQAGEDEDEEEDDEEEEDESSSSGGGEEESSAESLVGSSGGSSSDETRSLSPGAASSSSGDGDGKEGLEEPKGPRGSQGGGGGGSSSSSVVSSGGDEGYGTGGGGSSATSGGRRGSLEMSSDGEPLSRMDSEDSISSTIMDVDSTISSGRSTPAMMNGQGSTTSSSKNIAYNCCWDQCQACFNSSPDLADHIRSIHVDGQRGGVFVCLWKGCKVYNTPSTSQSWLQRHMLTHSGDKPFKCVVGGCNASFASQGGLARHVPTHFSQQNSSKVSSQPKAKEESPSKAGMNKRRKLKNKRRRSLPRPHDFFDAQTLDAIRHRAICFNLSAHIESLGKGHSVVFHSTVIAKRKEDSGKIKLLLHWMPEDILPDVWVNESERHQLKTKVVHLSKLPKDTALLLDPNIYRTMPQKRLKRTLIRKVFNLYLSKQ
Sequence of purified human, His-tagged PRC2 complex (Q09028 whole entry partner): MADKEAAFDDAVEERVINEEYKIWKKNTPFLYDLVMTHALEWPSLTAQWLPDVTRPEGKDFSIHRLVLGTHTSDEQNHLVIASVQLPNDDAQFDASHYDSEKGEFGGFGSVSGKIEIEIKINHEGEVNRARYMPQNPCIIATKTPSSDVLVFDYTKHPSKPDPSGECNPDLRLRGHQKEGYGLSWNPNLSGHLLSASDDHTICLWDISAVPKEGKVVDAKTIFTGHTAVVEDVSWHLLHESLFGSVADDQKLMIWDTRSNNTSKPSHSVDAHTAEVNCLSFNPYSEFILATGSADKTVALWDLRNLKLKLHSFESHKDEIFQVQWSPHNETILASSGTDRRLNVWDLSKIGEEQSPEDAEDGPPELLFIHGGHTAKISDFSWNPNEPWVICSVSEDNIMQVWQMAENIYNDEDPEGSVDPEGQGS

Consider `Cc1cc(-c2cnc(NCc3c(F)ccc4c3CCO4)n3cc(C(C)N)nc23)n(C)n1` (single isomer, unassigned) [Example 11, 2-(1-aminoethyl)-8-(1,3-dimethyl-1H-pyrazol-5-yl)-N-((5-fluoro-2,3-dihydrobenzofuran-4-yl)methyl)imidazo[1,2-c]pyrimidin-5-amine], for which the IC50 in test [1] is less than 250 nM; in test [2], less than 250 nM; in test [3] it was 500 to 2000 nM.

`Cc1cc(-c2cnc(NCc3c(F)ccc4c3CCO4)n3cc(CO)nc23)n(C)n1` [Example 1, (8-(1,3-dimethyl-1H-pyrazol-5-yl)-5-(((5-fluoro-2,3-dihydrobenzofuran-4-yl)methyl)amino)imidazo[1,2-c]pyrimidin-2-yl)methanol]: the IC50 in test [2] and in test [3] was less than 250 nM each time.

Take `Cc1cc(S(C)(=O)=O)ccc1-c1cnc(NCc2c(F)ccc3c2CCO3)n2cc(CO)nc12` [Example 2, (5-(((5-fluoro-2,3-dihydrobenzofuran-4-yl)methyl)amino)-8-(2-methyl-4-(methylsulfonyl)phenyl)imidazo[1,2-c]pyrimidin-2-yl)methanol]: the IC50 is 500 to 5000 nM in test [2] and less than 250 nM in test [3].

As to `Cc1ncccc1-c1cnc(NCc2c(F)ccc3c2CCO3)n2cc(CO)nc12` [Example 3, (5-(((5-fluoro-2,3-dihydrobenzofuran-4-yl)methyl)amino)-8-(2-methylpyridin-3-yl)imidazo[1,2-c]pyrimidin-2-yl)methanol], the IC50 in test [2] fell in the range of 500 to 5000 nM; in test [3] it was 500 to 2000 nM.

Take `OCc1cn2c(NCc3c(F)ccc4c3CCO4)ncc(-c3ccc(C4CC4)nc3)c2n1` [Example 4, (8-(6-cyclopropylpyridin-3-yl)-5-(((5-fluoro-2,3-dihydrobenzofuran-4-yl)methyl)amino)imidazo[1,2-c]pyrimidin-2-yl)methanol]: the IC50 was in the range of 500 to 5000 nM in test [2] and 500 to 2000 nM in test [3].

On to `COc1ccc(-c2cnc(NCc3c(F)ccc4c3CCO4)n3cc(CO)nc23)c(C)n1` [Example 5, (5-(((5-fluoro-2,3-dihydrobenzofuran-4-yl)methyl)amino)-8-(6-methoxy-2-methylpyridin-3-yl)imidazo[1,2-c]pyrimidin-2-yl)methanol], for which the IC50 in test [2] was 250 to 500 nM; in test [3], 500 to 2000 nM.

As to `Cn1nccc1-c1cnc(NCc2c(F)ccc3c2CCO3)n2cc(CO)nc12` [Example 6, (5-(((5-fluoro-2,3-dihydrobenzofuran-4-yl)methyl)amino)-8-(1-methyl-1H-pyrazol-5-yl)imidazo[1,2-c]pyrimidin-2-yl)methanol], the IC50 in test [1] is less than 250 nM; in test [3], 250 to 500 nM.

As to `Cc1cc(-c2cnc(NCc3c(F)ccc4c3CCO4)n3cc(C(O)c4ccccc4)nc23)n(C)n1` (centres unmarked) [Example 8], the IC50 in test [3] lay within 250 to 500 nM.

As to `NCc1cn2c(NCc3c(F)ccc4c3CCO4)ncc(-c3cccc(F)c3)c2n1` [Example 14, 2-(aminomethyl)-N-((5-fluoro-2,3-dihydrobenzofuran-4-yl)methyl)-8-(3-fluorophenyl)imidazo[1,2-c]pyrimidin-5-amine], the IC50 was 500 to 5000 nM in test [2] and 250 to 500 nM in test [3].

For `CNCc1cn2c(NCc3c(F)ccc4c3CCO4)ncc(-c3cc(C)nn3C)c2n1` [Example 25, 8-(1,3-dimethyl-1H-pyrazol-5-yl)-N-((5-fluoro-2,3-dihydrobenzofuran-4-yl)methyl)-2-((methylamino)methyl)imidazo[1,2-c]pyrimidin-5-amine], the IC50 in test [2] and in test [3] was 250 to 500 nM each time.

With `Cc1cc(-c2cnc(NCc3c(F)ccc4c3CCO4)n3cc(CN(C)C)nc23)n(C)n1` [Example 26, 8-(1,3-dimethyl-1H-pyrazol-5-yl)-2-((dimethylamino)methyl)-N-((5-fluoro-2,3-dihydrobenzofuran-4-yl)methyl)imidazo[1,2-c]pyrimidin-5-amine], the IC50 in test [3] was in the range of 500 to 2000 nM.

Turning to `Cc1cc(-c2cnc(NCc3c(F)ccc4c3CCO4)n3cc(C(N)C(F)(F)F)nc23)n(C)n1` (centres unmarked) [Example 42, 2-(1-amino-2,2,2-trifluoroethyl)-8-(1,3-dimethyl-1H-pyrazol-5-yl)-N-((5-fluoro-2,3-dihydrobenzofuran-4-yl)methyl)imidazo[1,2-c]pyrimidin-5-amine], the IC50 in test [3] lay within 250 to 500 nM.

As for `Cc1cc(-c2cnc(NCc3c(F)ccc4c3CCO4)n3cc(-c4nn[nH]n4)nc23)n(C)n1` [Example 43, 8-(1,3-dimethyl-1H-pyrazol-5-yl)-N-((5-fluoro-2,3-dihydrobenzofuran-4-yl)methyl)-2-(2H-tetrazol-5-yl)imidazo[1,2-c]pyrimidin-5-amine], the IC50 in test [3] is less than 250 nM.
